Results published in ChEMBL document CHEMBL1157031, “A novel copper complex of salicylaldehyde pyrazole hydrazone induces apoptosis through up-regulating integrin beta4 in H322 lung carcinoma cells” (Eur J Med Chem, 2010).
Calls of active or inactive are those of the source. No cut-off for these calls is given here.

Tests used:
[1] = test system: NCI-H322; assay: Induction of apoptosis in human NCI-H322 cells at 10 uM by Hoechst 33258 staining in presence of CuCl2; assay type: functional, cell-based
[2] = test system: NCI-H1299; assay: Cytotoxicity against human NCI-H1299 cells after 48 hrs by MTT assay; assay type: functional, cell-based; conditions: NCI-H1299, 48 h
[3] = Cytotoxicity against human NCI-H322 cells after 48 hrs by MTT assay; assay type: functional, cell-based; conditions: NCI-H322, 48 h
[4] = test system: HUVEC; assay: Cytotoxicity against HUVEC cells after 48 hrs by MTT assay; assay type: cell-based; conditions: Homo sapiens

CC(C)(C)c1ccc(Cn2nc(-c3ccccc3)cc2C(=O)N/N=C/c2ccccc2O)cc1
Activity [1]: Active
IC50 [2]: 5.78 µM
IC50 [3]: 4.75 µM
IC50 [4]: 2.23 µM
